This is an account of results in ChEMBL document CHEMBL1151062, “Synthesis and biological activity of 3-alkyl- and 3-alkenyl-3-dephenyldocetaxels” (Bioorg Med Chem Lett, 1994).

One assay has as its system HT-29. In words: Cytotoxicity against human colon HT-29 cell lines. The class given is functional, cell-based.
The test system of assay [1] is MCF7. In words: Cytotoxicity against adriamycin resistant human breast MCF-7 cancer cell lines. In kind it is functional, cell-based.
Another assay relates to A121. In words: Cytotoxicity against human A121 ovarian cells. In kind it is functional, cell-based.
Another assay concerns A549. Kind of assay: Cytotoxicity against human A549 non small cell lung cell lines. The class given is functional, cell-based.
The test system of assay [2] is MCF7. Kind of assay: Cytotoxicity against human breast MCF-7 cancer cell lines. In kind it is functional, cell-based.
In assay [3] the test system is P388. Kind of assay: In vitro cytotoxicity against doxorubicin resistant P388 cell lines. The class given is functional, cell-based. The note with it: Mus musculus.
Assay [4] concerns P388. Kind of assay: In vitro cytotoxicity against murine P388 cell lines. The class given is functional, cell-based. Particulars: Mus musculus.
Assay [5] relates to P388. In words: Microtubule disassembly inhibitory activity against murine P388 cell line relative to the activity of paclitaxel. In kind it is functional, Mus musculus.
The species named for assay [6] is Mus musculus. Kind of assay: Cell kill against B16 melanoma cell lines at a concentration of 0.4 mL per mouse on days 5,7,9 in B6D2F1 mice. In kind it is functional.
Assay [7] relates to Mus musculus. In words: In vivo antitumor activity administered iv, at a concentration of 20 mg/kg/day per mouse was determined against B16 melanoma cell lines on days 5,7,9 in B6D2F1 mice. In kind it is functional.
For assay [8], the species on record is Mus musculus. In words: Time for median tumor to reach 1000 mg was determined against B16 melanoma cell lines at a concentration of 0.4 mL per mouse on days 5,7,9 in B6D2F1 mice. The class given is functional.
The subject of assay [9] is Mus musculus. In words: In vivo antitumor activity administered iv, at a concentration of 12.4 mg/kg/day per mouse was determined against B16 melanoma cell lines on days 5,7,9 in B6D2F1 mice. The class given is functional.

For the compound `C/C=C/[C@H](NC(=O)OC(C)(C)C)[C@@H](O)C(=O)O[C@H]1C[C@@]2(O)[C@@H](OC(=O)c3ccccc3)C3[C@](C)(C(=O)[C@H](OC(C)=O)C(=C1C)C2(C)C)[C@@H](O)C[C@H]1OC[C@@]31OC(C)=O` (stereo partly specified), the half-inhibitory concentration (IC50) came to 0.76 nM with HT-29; 14 nM in the assay on MCF7 [1]; 0.9 nM in the assay with A121; 0.54 nM with A549; 0.51 nM with MCF7 [2].

For `CC(=O)O[C@H]1C(=O)[C@@]2(C)C([C@H](OC(=O)c3ccccc3)[C@]3(O)C[C@H](OC(=O)[C@H](O)[C@H](CC(C)C)NC(=O)OC(C)(C)C)C(C)=C1C3(C)C)[C@]1(OC(C)=O)CO[C@@H]1C[C@@H]2O` (stereo partly specified), the IC50 with HT-29 is 3.2 nM; in the assay on MCF7 [1], 36 nM; in the assay on A121, 3.8 nM; with A549, 0.98 nM; in the assay on MCF7 [2] it was 4 nM.

Regarding `CC(=O)O[C@@]12CO[C@@H]1C[C@H](O)[C@@]1(C)C(=O)[C@H](O)C3=C(C)[C@@H](OC(=O)[C@H](O)[C@H](/C=C/c4ccccc4)NC(=O)OC(C)(C)C)C[C@@](O)([C@@H](OC(=O)c4ccccc4)C12)C3(C)C` (stereo partly specified), the IC50 in the assay with P388 [3] stood at 7490 nM; in the assay with P388 [4] it was 264 nM. In addition, the Ratio with P388 [5] is given as 1.45.

For `CC(=O)O[C@@]12CO[C@@H]1C[C@H](O)[C@@]1(C)C(=O)[C@H](O)C3=C(C)[C@@H](OC(=O)[C@H](O)[C@H](CC(C)C)NC(=O)OC(C)(C)C)C[C@@](O)([C@@H](OC(=O)c4ccccc4)C12)C3(C)C` (stereo partly specified), the IC50 amounted to 0.63 nM with HT-29; 12 nM in the assay on MCF7 [1]; 1590 nM with P388 [3]; 1.9 nM in the assay with A121; 0.7 nM in the assay with A549; 12.2 nM in the assay on P388 [4]. Further, in the assay on MCF7 [2], half-maximal inhibition (IC50) was put at 0.55 nM. For the same compound, the Log cell kill in the assay listed under Mus musculus [6] is listed as 1.97. For the same compound, the T/C in the assay on Mus musculus [7] is 5%. In the assay filed under Mus musculus [8], the Median tumor was 26.03 days. Also, the Ratio in the assay on P388 [5] was determined as 0.78.

In the case of `CC(=O)O[C@@]12CO[C@@H]1C[C@H](O)[C@@]1(C)C(=O)[C@H](O)C3=C(C)[C@@H](OC(=O)[C@H](O)[C@H](CC(C)(C)C)NC(=O)OC(C)(C)C)C[C@@](O)([C@@H](OC(=O)c4ccccc4)C12)C3(C)C` (stereo partly specified), the concentration for half-maximal inhibition (IC50) in the assay on P388 [3] amounted to 6880 nM; in the assay on P388 [4] it was 125 nM. In addition, in the assay with P388 [5], the Ratio is given as 1.45.

With `CC(=O)O[C@@]12CO[C@@H]1C[C@H](O)[C@@]1(C)C(=O)[C@H](O)C3=C(C)[C@@H](OC(=O)[C@H](O)[C@H](C=C(C)C)NC(=O)OC(C)(C)C)C[C@@](O)([C@@H](OC(=O)c4ccccc4)C12)C3(C)C` (stereo partly specified), the IC50 is 2360 nM with P388 [3] and 12.8 nM with P388 [4]. This compound also returned a Log cell kill in the assay filed under Mus musculus [6] of 2.25. In the assay on Mus musculus [9], this compound returned a T/C of 8%. Also, the Median tumor in the assay listed under Mus musculus [8] was 27.54 days. Further, the Ratio in the assay on P388 [5] stood at 0.64.

`CC(=O)O[C@H]1C(=O)[C@@]2(C)C([C@H](OC(=O)c3ccccc3)[C@]3(O)C[C@H](OC(=O)[C@H](O)[C@H](C=C(C)C)NC(=O)c4ccccc4)C(C)=C1C3(C)C)[C@]1(OC(C)=O)CO[C@@H]1C[C@@H]2O` (stereo partly specified): the IC50 in the assay on HT-29 came to 0.96 nM; with MCF7 [1] it was 113 nM; in the assay with A121, 1.4 nM; with A549, 0.45 nM; with MCF7 [2], 0.54 nM.

For the compound `CC(=O)O[C@@]12CO[C@@H]1C[C@H](O)[C@@]1(C)C(=O)[C@H](O)C3=C(C)[C@@H](OC(=O)[C@H](O)[C@@H](NC(=O)OC(C)(C)C)c4ccccc4)C[C@@](O)([C@@H](OC(=O)c4ccccc4)[C@H]21)C3(C)C.O.O.O` [DOCETAXEL], the IC50 in the assay with P388 [3] was 1860 nM; with P388 [4], 9.9 nM. Also, the Ratio in the assay with P388 [5] was found to be 0.7.

Usually IC50 stands for the concentration that inhibits the measured activity by half. Low readings indicate inhibition by little substance, high ones a need for much substance. The T/C is the ratio of treated to control.
